{"source": "patent US6620397B2", "about": "“Material and method for treating photographic effluents” (Eastman Kodak Company, priority 2001, dated 2003)", "test": "Oxidation of cyclohexene to cyclohexanol followed by FT Raman spectroscopy", "protocol": "When no imogolite was present in the test the volume of imogolite was replaced by an equivalent volume of water so as to retain a constant volume. The oxidation of the cyclohexene was followed by FT (Fourier transform) Raman spectroscopy by measuring the percentage of cyclohexene converted to cyclohexanol after 48 hours. The tests were carried out at ambient temperature."}
{"compound": "OO", "note": "[Example 13, hydrogen peroxide]", "values": [{"measurement": "Cyclohexene oxidized after 48 h (%)", "setting": "5 g material, 20 ml cyclohexene in 80 ml methanol, ambient temperature, 48 hours", "value": 3, "unit": "%"}, {"measurement": "Oxidizing property towards cyclohexene (in words)", "setting": "summary of Table I", "value": "weak oxidizing agent"}]}
